# According to patent publication US10982284B2, “Compositions and methods APC, CREB, and BAD pathways to assess and affect cancer” (H. Lee Moffitt Cancer Center and Research Institute, Inc., priority 2011, dated 2021):
# Experiments:
# Assay in all cases: CellTiter-Blue cell viability assay
# Assay type in all cases: cell-based, human
# OVCA433 = OVCA433 ovarian cancer cell line; 72 hours; 50% reduction in growth/viability
# From the text: (§1) Ovarian cancer cell lines were obtained from the American Type Culture Collection (Manassas, Va.) (CAOV3, OV90, OVCAR3, SKOV3, TO[…]); from the European Collection of Cell Cultures, Salisbury, UK (A2780CP, A2780S); or from Kyoto University, Kyoto, Japan ([…], Tyknu, and TyknuC is R) or were kind gifts from Dr. Patricia Kruk, Department of Pathology, College of Medicine, University of South Florida, Tampa, Fla., and Susan Murphy, PhD, Dept of OBGYN/Division of GYN Oncology, Duke University, Durham, N.C. […] Cell lines were maintained in RPMI-1640 (Invitrogen, Carlsbad, Calif.) supplemented with 10% fetal bovine serum (Fisher Scientific, Pittsburgh, Pa.), 1% sodium pyruvate, 1% penicillin/streptomycin (Cellgro, Manassas, Va.), and 1% nonessential amino acids (HyClone, Hudson, N.H.). Mycoplasma testing was performed every 6 months following manufacturer's protocol (Lonza, Rockland, Me.). Drug activity was evaluated using a high-throughput CellTiter-Blue cell viability assay. […] After cell adherence, increasing concentrations of cisplatin, carboplatin (Sigma-Aldrich, St. Louis, Mo.), paclitaxel (Sequoia Research Products Ltd., Pangbourne, UK), or carboplatin plus paclitaxel (carbotaxol: constant molar ratio of carboplatin to paclitaxel of 20,000:1) were added to appropriate wells using an automated pipetting station. Four replicate wells were used for each drug concentration and vehicle controls. […] The cells were incubated with the drug for 72 hours, and 5 μL of CellTiter-Blue reagent (Promega Corp) was added to each well. Fluorescence was read at […] using a Synergy 4 microplate reader (Bio-Tek Instruments, Inc., Winooski, Vt.).
# M41 = M41 ovarian cancer cell line; 72 hours; 50% reduction in growth/viability
# From the text: as §1
# OVCAR4 = OVCAR4 ovarian cancer cell line; 72 hours; 50% reduction in growth/viability
# From the text: as §1
# HeyA8 = HeyA8 ovarian cancer cell line; 72 hours; 50% reduction in growth/viability
# From the text: as §1
# IMCC3 = IMCC3 ovarian cancer cell line; 72 hours; 50% reduction in growth/viability
# From the text: as §1
# OVCAR3 = OVCAR3 ovarian cancer cell line; 72 hours; 50% reduction in growth/viability
# From the text: as §1
# Dov13 = Dov13 ovarian cancer cell line; 72 hours; 50% reduction in growth/viability
# From the text: as §1
# CAOV2 = CAOV2 ovarian cancer cell line; 72 hours; 50% reduction in growth/viability
# From the text: as §1
# OVCA420 = OVCA420 ovarian cancer cell line; 72 hours; 50% reduction in growth/viability
# From the text: as §1
# OVCA429 = OVCA429 ovarian cancer cell line; 72 hours; 50% reduction in growth/viability
# From the text: as §1
# OVCAR5 = OVCAR5 ovarian cancer cell line; 72 hours; 50% reduction in growth/viability
# From the text: as §1
# CHIcisR = CHIcisR ovarian cancer cell line; 72 hours; 50% reduction in growth/viability
# From the text: as §1
# OVCAR8 = OVCAR8 ovarian cancer cell line; 72 hours; 50% reduction in growth/viability
# From the text: as §1
# SK-OV-4 = SK-OV-4 ovarian cancer cell line; 72 hours; 50% reduction in growth/viability
# From the text: as §1
# A2008 = A2008 ovarian cancer cell line; 72 hours; 50% reduction in growth/viability
# From the text: as §1
# BG1 = BG1 ovarian cancer cell line; 72 hours; 50% reduction in growth/viability
# From the text: as §1
# A2780CP = A2780CP ovarian cancer cell line; 72 hours; 50% reduction in growth/viability
# From the text: as §1
# Tyknu = Tyknu ovarian cancer cell line; 72 hours; 50% reduction in growth/viability
# From the text: as §1
# CHI = CHI ovarian cancer cell line; 72 hours; 50% reduction in growth/viability
# From the text: as §1
# Ovary1847 = Ovary1847 ovarian cancer cell line; 72 hours; 50% reduction in growth/viability
# From the text: as §1
# OVCAR10 = OVCAR10 ovarian cancer cell line; 72 hours; 50% reduction in growth/viability
# From the text: as §1
# C13 = C13 ovarian cancer cell line; 72 hours; 50% reduction in growth/viability
# From the text: as §1
# TyknuCisR = TyknuCisR ovarian cancer cell line; 72 hours; 50% reduction in growth/viability
# From the text: as §1
# MCAS = MCAS ovarian cancer cell line; 72 hours; 50% reduction in growth/viability
# From the text: as §1
# IGR-OV1 = IGR-OV1 ovarian cancer cell line; 72 hours; 50% reduction in growth/viability
# From the text: as §1
# OVCA432 = OVCA432 ovarian cancer cell line; 72 hours; 50% reduction in growth/viability
# From the text: as §1
# M41CSR = M41CSR ovarian cancer cell line; 72 hours; 50% reduction in growth/viability
# From the text: as §1
# OV2008 = OV2008 ovarian cancer cell line; 72 hours; 50% reduction in growth/viability
# From the text: as §1
# CAOV3 = CAOV3 ovarian cancer cell line; 72 hours; 50% reduction in growth/viability
# From the text: as §1
# IMCC5 = IMCC5 ovarian cancer cell line; 72 hours; 50% reduction in growth/viability
# From the text: as §1
# A2780S = A2780S ovarian cancer cell line; 72 hours; 50% reduction in growth/viability
# From the text: as §1
# OVCAR2 = OVCAR2 ovarian cancer cell line; 72 hours; 50% reduction in growth/viability
# From the text: as §1
smiles,measurement,setting,value
"N.N.[Cl][Pt][Cl] [Cisplatin, cisplatin]",IC50,OVCA433,8.8 µM
same,IC50,M41,12.8 µM
same,IC50,OVCAR4,20.5 µM
same,IC50,HeyA8,33.1 µM
same,IC50,IMCC3,22 µM
same,IC50,OVCAR3,1300 nM
same,IC50,Dov13,24.6 µM
same,IC50,CAOV2,4.5 µM
same,IC50,OVCA420,13.7 µM
same,IC50,OVCA429,5.8 µM
same,IC50,OVCAR5,12.9 µM
same,IC50,CHIcisR,1300 nM
same,IC50,OVCAR8,75.3 µM
same,IC50,SK-OV-4,13 µM
same,IC50,A2008,1500 nM
same,IC50,BG1,36.4 µM
same,IC50,A2780CP,43.8 µM
same,IC50,Tyknu,4.8 µM
same,IC50,CHI,4.9 µM
same,IC50,Ovary1847,8.7 µM
same,IC50,OVCAR10,32.5 µM
same,IC50,C13,17.9 µM
same,IC50,TyknuCisR,17.7 µM
same,IC50,MCAS,61.3 µM
same,IC50,IGR-OV1,1400 nM
same,IC50,OVCA432,1400 nM
same,IC50,M41CSR,13.5 µM
same,IC50,OV2008,3.5 µM
same,IC50,CAOV3,34.4 µM
same,IC50,IMCC5,4.9 µM
same,IC50,A2780S,4.7 µM
same,IC50,OVCAR2,3.7 µM
